From ChEMBL document CHEMBL1146442, “Kawaguchipeptin B, an antibacterial cyclic undecapeptide from the cyanobacterium Microcystis aeruginosa” (1997)
In brackets after ≈: the same amount, converted by molar mass. Residues, ends and D or L forms follow the SMILES beside them.

Test system: Staphylococcus aureus
Assay: Antimicrobial activity against Staphylococcus aureus
Type: functional

| SMILES | MIC |
| --- | --- |
| CC(C)=CC[C@@]12C[C@H]3C(=O)N[C@@H](CO)C(=O)N[C@@H]([C@@H](C)O)C(=O)N4CCC[C@H]4C(=O)N4[C@@H](C[C@@]5(CC=C(C)C)c6ccccc6N[C@@H]45)C(=O)N[C@H](CC(C)C)C(=O)N[C@@H](CC(N)=O)C(=O)NCC(=O)N[C@@H](CC(=O)O)C(=O)N[C@@H](CC(N)=O)C(=O)N[C@@H](CC(N)=O)C(=O)N3[C@H]1Nc1ccccc12 [KAWAGUCHIPEPTIN A] | 1 µg/mL (≈ 0.703 µM) |
| CC(C)C[C@@H]1NC(=O)[C@H](Cc2c[nH]c3ccccc23)NC(=O)[C@@H]2CCCN2C(=O)[C@H]([C@@H](C)O)NC(=O)[C@H](CO)NC(=O)[C@H](Cc2c[nH]c3ccccc23)NC(=O)[C@H](CC(N)=O)NC(=O)[C@H](CC(N)=O)NC(=O)[C@H](CC(=O)O)NC(=O)CNC(=O)[C@H](CC(N)=O)NC1=O [KAWAGUCHIPEPTIN B] (HELM PEPTIDE1{D.N.N.W.S.T.P.W.L.N.G}$PEPTIDE1,PEPTIDE1,1:R1-11:R2$$$V2.0) | 1 µg/mL (≈ 0.778 µM) |
